The source made the active and inactive calls.
Assays:
[1] = molecular target: Aurora kinase B (Homo sapiens, UniProt Q96GD4)
[2] = molecular target: Serine/threonine-protein kinase MRCK beta (Homo sapiens, UniProt Q9Y5S2)
[3] = molecular target: T1, Glycogen phosphorylase, brain form (Homo sapiens, UniProt P11216)
T1 sequence (P11216 whole entry): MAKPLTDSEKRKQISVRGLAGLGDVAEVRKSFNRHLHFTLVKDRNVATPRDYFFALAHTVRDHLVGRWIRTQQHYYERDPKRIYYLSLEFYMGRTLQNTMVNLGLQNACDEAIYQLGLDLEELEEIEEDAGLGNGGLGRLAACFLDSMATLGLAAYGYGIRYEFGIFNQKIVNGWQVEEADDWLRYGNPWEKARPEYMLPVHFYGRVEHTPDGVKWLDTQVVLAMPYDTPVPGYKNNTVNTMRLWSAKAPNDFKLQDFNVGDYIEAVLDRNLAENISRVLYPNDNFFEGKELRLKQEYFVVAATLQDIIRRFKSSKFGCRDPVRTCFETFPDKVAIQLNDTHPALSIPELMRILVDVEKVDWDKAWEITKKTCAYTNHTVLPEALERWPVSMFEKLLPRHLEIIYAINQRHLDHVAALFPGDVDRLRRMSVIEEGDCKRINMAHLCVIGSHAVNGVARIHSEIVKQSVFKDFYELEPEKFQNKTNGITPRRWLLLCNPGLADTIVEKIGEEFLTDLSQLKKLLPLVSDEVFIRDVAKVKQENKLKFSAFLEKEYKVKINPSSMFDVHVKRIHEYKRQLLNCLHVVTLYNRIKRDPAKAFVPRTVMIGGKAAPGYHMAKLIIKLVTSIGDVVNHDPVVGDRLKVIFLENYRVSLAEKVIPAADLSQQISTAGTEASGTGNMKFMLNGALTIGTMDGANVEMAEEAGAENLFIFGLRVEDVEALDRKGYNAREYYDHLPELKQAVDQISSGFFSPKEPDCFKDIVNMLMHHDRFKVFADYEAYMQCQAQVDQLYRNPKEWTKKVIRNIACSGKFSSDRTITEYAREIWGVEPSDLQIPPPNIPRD

[4] = molecular target: T2, Ras-related protein Rab-27A (Homo sapiens, UniProt P51159)
T2 sequence (P51159 whole entry): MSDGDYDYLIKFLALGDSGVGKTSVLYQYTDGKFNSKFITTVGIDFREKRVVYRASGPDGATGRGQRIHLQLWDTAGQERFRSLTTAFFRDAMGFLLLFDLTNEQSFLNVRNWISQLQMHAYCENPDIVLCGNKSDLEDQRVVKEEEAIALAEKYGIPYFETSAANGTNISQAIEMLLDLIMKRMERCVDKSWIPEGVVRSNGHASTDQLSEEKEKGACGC

[5] = molecular target: T3, Exosome RNA helicase MTR4 (Homo sapiens, UniProt P42285)
T3 sequence (P42285 whole entry): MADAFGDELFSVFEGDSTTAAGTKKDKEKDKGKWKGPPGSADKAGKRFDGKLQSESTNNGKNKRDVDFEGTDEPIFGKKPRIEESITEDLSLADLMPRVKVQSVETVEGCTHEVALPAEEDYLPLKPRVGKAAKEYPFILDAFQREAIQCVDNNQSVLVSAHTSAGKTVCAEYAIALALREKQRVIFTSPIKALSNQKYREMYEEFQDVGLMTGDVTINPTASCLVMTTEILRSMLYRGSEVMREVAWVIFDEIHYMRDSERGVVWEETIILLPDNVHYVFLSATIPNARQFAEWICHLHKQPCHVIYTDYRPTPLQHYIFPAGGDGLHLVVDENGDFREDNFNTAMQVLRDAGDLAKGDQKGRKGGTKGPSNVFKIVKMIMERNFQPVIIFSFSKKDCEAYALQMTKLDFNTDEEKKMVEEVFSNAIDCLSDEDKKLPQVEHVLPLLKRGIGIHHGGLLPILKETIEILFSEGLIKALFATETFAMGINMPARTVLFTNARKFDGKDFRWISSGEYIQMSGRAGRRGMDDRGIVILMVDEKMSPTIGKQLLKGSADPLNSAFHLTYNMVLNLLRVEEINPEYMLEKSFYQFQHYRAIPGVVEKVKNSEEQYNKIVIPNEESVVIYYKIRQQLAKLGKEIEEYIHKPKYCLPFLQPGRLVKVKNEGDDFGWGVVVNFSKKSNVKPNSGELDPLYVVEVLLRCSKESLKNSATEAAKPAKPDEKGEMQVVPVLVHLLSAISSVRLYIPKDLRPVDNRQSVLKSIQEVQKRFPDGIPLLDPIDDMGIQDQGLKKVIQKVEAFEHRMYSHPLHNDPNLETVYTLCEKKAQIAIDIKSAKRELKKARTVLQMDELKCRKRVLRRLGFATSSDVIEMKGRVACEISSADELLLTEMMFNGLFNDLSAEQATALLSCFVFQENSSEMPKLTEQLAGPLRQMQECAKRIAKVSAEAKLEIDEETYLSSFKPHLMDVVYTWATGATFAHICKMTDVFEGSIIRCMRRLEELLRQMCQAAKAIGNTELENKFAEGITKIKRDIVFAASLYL

[6] = molecular target: T4, Tyrosine--tRNA ligase, cytoplasmic (Homo sapiens, UniProt P54577)
T4 sequence (P54577 whole entry): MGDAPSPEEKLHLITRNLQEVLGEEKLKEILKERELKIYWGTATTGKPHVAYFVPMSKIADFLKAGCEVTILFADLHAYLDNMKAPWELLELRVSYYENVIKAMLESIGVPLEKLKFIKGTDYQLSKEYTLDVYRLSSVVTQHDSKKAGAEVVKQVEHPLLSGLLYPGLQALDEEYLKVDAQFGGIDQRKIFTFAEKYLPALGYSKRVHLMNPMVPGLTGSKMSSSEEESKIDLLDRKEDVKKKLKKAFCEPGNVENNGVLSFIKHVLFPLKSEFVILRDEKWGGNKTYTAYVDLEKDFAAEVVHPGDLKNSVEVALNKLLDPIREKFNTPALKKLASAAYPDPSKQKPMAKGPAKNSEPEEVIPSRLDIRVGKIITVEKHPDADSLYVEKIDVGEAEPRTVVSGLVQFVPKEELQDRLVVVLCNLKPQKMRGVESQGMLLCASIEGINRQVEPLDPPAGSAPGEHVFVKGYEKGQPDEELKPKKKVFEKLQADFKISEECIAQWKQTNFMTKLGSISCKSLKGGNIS

[7] = molecular target: Tyrosine-protein kinase Yes (Homo sapiens, UniProt P07947)
Also: in the data inactive means no Kd found up to 30 µM.

Sequence of Serine/threonine-protein kinase MRCK beta (Q9Y5S2 whole entry): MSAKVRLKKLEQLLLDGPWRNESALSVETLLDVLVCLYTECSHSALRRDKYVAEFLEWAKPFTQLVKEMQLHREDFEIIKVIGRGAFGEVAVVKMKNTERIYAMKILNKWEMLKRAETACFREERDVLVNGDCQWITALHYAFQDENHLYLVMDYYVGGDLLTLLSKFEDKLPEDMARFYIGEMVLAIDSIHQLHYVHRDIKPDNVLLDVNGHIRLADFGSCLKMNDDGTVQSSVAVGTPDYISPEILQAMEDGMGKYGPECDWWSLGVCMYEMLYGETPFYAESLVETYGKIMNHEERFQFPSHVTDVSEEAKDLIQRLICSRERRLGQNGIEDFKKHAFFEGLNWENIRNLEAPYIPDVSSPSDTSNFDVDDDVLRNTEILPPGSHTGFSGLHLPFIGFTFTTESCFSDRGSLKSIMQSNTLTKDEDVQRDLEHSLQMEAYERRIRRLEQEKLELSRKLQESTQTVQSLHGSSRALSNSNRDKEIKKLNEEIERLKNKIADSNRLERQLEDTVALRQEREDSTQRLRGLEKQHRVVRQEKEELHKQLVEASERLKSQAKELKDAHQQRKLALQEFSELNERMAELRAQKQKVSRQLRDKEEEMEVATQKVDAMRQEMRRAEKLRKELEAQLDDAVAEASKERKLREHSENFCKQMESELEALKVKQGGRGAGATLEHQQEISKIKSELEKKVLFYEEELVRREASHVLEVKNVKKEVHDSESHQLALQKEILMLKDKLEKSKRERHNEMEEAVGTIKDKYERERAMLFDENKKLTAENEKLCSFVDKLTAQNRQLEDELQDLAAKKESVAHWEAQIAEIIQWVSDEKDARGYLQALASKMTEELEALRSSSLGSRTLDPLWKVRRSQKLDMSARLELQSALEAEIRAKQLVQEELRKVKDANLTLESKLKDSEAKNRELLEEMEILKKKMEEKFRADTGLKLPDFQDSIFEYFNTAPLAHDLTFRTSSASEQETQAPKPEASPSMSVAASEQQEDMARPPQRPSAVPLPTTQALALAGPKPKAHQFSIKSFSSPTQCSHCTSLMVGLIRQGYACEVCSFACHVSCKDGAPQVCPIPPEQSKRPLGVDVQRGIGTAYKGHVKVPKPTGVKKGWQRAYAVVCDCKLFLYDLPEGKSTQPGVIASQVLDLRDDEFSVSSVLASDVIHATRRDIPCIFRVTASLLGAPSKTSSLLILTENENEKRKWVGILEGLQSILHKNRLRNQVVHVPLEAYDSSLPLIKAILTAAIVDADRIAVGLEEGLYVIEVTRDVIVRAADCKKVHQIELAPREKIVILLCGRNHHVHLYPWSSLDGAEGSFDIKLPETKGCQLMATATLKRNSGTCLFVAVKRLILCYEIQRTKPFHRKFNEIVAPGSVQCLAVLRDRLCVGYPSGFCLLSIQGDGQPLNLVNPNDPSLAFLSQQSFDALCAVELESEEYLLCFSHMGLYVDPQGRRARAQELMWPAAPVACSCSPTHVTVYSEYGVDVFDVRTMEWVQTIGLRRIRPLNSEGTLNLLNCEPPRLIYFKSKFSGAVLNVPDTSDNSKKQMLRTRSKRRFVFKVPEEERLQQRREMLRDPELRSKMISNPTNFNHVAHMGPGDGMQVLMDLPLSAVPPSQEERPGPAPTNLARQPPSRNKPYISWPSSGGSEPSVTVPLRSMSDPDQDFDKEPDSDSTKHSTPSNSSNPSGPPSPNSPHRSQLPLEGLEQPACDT
Sequence of Aurora kinase B (Q96GD4 whole entry): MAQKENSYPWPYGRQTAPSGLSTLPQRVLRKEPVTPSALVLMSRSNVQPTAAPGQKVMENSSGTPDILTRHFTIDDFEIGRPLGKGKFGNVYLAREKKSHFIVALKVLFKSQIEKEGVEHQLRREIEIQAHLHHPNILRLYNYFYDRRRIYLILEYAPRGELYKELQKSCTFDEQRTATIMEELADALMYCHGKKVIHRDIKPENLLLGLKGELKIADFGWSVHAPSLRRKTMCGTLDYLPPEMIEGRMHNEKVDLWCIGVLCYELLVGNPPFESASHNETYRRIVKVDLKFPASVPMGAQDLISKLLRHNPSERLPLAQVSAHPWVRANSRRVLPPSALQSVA
Sequence of Tyrosine-protein kinase Yes (P07947 whole entry): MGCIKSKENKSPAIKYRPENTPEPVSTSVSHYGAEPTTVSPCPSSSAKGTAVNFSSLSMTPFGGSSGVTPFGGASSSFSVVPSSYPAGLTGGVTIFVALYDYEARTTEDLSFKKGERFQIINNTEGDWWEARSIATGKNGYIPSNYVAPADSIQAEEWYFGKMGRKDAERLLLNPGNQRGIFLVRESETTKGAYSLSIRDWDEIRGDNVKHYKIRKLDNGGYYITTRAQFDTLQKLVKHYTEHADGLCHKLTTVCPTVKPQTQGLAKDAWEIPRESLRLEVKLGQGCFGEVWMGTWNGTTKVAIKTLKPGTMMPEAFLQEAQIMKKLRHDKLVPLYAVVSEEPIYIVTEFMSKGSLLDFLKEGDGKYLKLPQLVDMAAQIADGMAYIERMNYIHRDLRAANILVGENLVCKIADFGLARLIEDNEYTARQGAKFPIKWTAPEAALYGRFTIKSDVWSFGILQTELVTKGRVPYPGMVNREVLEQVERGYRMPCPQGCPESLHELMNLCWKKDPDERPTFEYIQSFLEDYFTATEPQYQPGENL

Kd [1] | Kd [2] | Kd [3] | Kd [4] | Kd [5] | Kd [6] | Kd [7] | SMILES
> 30 µM (inactive) | > 30 µM (inactive) | > 30 µM (inactive) | > 30 µM (inactive) | > 30 µM (inactive) | > 30 µM (inactive) | > 30 µM (inactive) | O=C(NC[C@H](O)CO)c1ccncc1Nc1ccc(I)cc1F [PIMASERTIB]
> 30 µM (inactive) | > 30 µM (inactive) | > 30 µM (inactive) | > 30 µM (inactive) | > 30 µM (inactive) | > 30 µM (inactive) | > 30 µM (inactive) | O=C(Nc1ccc(OC(F)(F)F)cc1)c1sccc1NCc1ccnc2ccccc12 [OSI-930]
> 30 µM (inactive) | > 30 µM (inactive) | > 30 µM (inactive) | > 30 µM (inactive) | > 30 µM (inactive) | > 30 µM (inactive) | > 30 µM (inactive) | O=C(NOC[C@H](O)CO)c1ccc(F)c(F)c1Nc1ccc(I)cc1F [MIRDAMETINIB]
> 30 µM (inactive) | > 30 µM (inactive) | > 30 µM (inactive) | > 30 µM (inactive) | > 30 µM (inactive) | > 30 µM (inactive) | > 30 µM (inactive) | CNC(=O)c1cc(COc2nnc(Nc3ccc(Cl)cc3)c3ccoc23)ccn1 [TELATINIB]
> 30 µM (inactive) | > 30 µM (inactive) | > 30 µM (inactive) | > 30 µM (inactive) | > 30 µM (inactive) | > 30 µM (inactive) | > 30 µM (inactive) | COc1ccc(-c2ccc3ncc4c(c3c2)n(-c2ccc(N3CCNCC3)c(C(F)(F)F)c2)c(=O)n4C)cn1 [BGT-226 FREE BASE]
> 30 µM (inactive) | > 30 µM (inactive) | > 30 µM (inactive) | > 30 µM (inactive) | > 30 µM (inactive) | > 30 µM (inactive) | > 30 µM (inactive) | FC(F)(F)c1ccc(CNc2ccc(Cc3c[nH]c4ncc(Cl)cc34)cn2)cn1 [PEXIDARTINIB]
> 30 µM (inactive) | > 30 µM (inactive) | > 30 µM (inactive) | > 30 µM (inactive) | > 30 µM (inactive) | > 30 µM (inactive) | > 30 µM (inactive) | S=C(NCc1ccc2c(c1)OCO2)N1CCN(c2ncnc3c2oc2ccccc23)CC1 [AMUVATINIB]
1.56 µM (active) | > 30 µM (inactive) | > 30 µM (inactive) | > 30 µM (inactive) | > 30 µM (inactive) | > 30 µM (inactive) | > 30 µM (inactive) | Cc1cc(Nc2nc(N[C@@H](C)c3ncc(F)cn3)ncc2Cl)n[nH]1 [AZD-1480]
> 30 µM (inactive) | > 30 µM (inactive) | > 30 µM (inactive) | > 30 µM (inactive) | > 30 µM (inactive) | > 30 µM (inactive) | > 30 µM (inactive) | O=S(=O)(c1cccc2c(O)nccc12)N1CCCNCC1 [HYDROXYFASUDIL]
> 30 µM (inactive) | > 30 µM (inactive) | > 30 µM (inactive) | > 30 µM (inactive) | > 30 µM (inactive) | > 30 µM (inactive) | 0.321 µM (active) | C[C@@H]1COC(Nc2ccc3ncnc(Nc4ccc(OCc5nccs5)c(Cl)c4)c3c2)=N1 [VARLITINIB]
> 30 µM (inactive) | > 30 µM (inactive) | > 30 µM (inactive) | > 30 µM (inactive) | > 30 µM (inactive) | > 30 µM (inactive) | > 30 µM (inactive) | CCN1CCN(Cc2ccc(Nc3ncc(F)c(-c4cc(F)c5nc(C)n(C(C)C)c5c4)n3)nc2)CC1 [ABEMACICLIB]
1.07 µM (active) | > 30 µM (inactive) |  | > 30 µM (inactive) | > 30 µM (inactive) | > 30 µM (inactive) | > 30 µM (inactive) | CCOc1ccn(-c2ccc(F)cc2)c(=O)c1C(=O)Nc1ccc(Oc2ccnc(N)c2Cl)c(F)c1 [BMS-777607]

SMILES | Kd [1] | Kd [2] | Kd [3] | Kd [4] | Kd [5] | Kd [6] | Kd [7]
N#CCNC(=O)c1ccc(-c2ccnc(Nc3ccc(N4CCOCC4)cc3)n2)cc1 [MOMELOTINIB] | > 30 µM (inactive) |  | > 30 µM (inactive) | > 30 µM (inactive) | > 30 µM (inactive) | > 30 µM (inactive) | > 30 µM (inactive)

— ChEMBL document CHEMBL3991601, “The target landscape of clinical kinase drugs” (Science, 2017)
